The record followed here is ChEMBL document CHEMBL5728583, “Galactoside inhibitor of galectins” (2021).

In one experiment the target is Galectin-1 (Homo sapiens, UniProt P09382). The experiment can be described thus: fluorescence anisotropy assay: The affinity of Example 1-33 for galectins were determined by a fluorescence anisotropy assay where the compound was used as an inhibitor of the interaction between galectin and a fluorescein tagged saccharide probe as described Sörme, P., Kahl-Knutsson, B., Huflejt, M., Nilsson, U. J., and Leffler H. (2004) Fluorescence polarization as an analytical tool to ….
Galectin-1, sequence (P09382 whole entry): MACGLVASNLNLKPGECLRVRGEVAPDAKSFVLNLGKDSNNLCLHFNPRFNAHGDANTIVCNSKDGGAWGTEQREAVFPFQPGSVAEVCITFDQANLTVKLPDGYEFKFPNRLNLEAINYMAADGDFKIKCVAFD

Another experiment deals with Galectin-3 (Homo sapiens, UniProt P17931). The experiment can be described thus: fluorescence anisotropy assay: The affinity of Example 1-33 for galectins were determined by a fluorescence anisotropy assay where the compound was used as an inhibitor of the interaction between galectin and a fluorescein tagged saccharide probe as described Sörme, P., Kahl-Knutsson, B., Huflejt, M., Nilsson, U. J., and Leffler H. (2004) Fluorescence polarization as an analytical tool to evaluate galectin-ligand interactions. Anal. Biochem. 334: 36-47, (Sörme et al., 2004) and Monovalent interactions of Galectin-1 By Salomonsson, Emma; Larumbe, Amaia; Tejler, Johan; Tullberg, Erik; Rydberg, Hanna; Sundin, Anders; Khabut, Areej; Frejd, Torbjorn; Lobsanov, Yuri D.; Rini, James M.; et al, From Biochemistry (2010), 49(44), 9518-9532, (Salomonsson et al., 2010).
Galectin-3, sequence (P17931 whole entry): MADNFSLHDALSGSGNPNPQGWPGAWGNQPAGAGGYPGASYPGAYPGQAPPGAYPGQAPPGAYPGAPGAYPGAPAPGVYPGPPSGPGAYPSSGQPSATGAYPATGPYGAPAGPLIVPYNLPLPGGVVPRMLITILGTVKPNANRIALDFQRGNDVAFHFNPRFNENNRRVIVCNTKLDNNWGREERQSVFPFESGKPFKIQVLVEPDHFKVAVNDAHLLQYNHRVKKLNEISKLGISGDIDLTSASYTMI

As usually defined, the Kd is the free concentration of one partner at which half of the binding sites on the other are occupied at equilibrium, for simple one-to-one binding. Low values mean tighter binding, high ones weaker binding.

With `OC[C@H]1O[C@H](Sc2ccc(Cl)c(Cl)c2)[C@H](O)[C@@H](n2cc(-c3nc(O)cs3)nn2)[C@H]1O`, the Kd was found to be 650 nM at Galectin-1 and 1700 nM on Galectin-3.
